In brackets after ≈: the same amount, converted by molar mass.
Key:
[1] = test system: P388 murine leukemia; test: P388 In Vivo Murine Leukemia Assay; set-up: species or system CDF1 female mice; details: i.p., once on day 1; for % T/C (median survival time): >=125% significant; for MST: control MST 9.5 days; for Average Wgt. change in g (day 4): control 1.1; for No. Mice alive on day 5/total: control 10/10
Description: The test protocol involved CDF1 female mice implanted intraperitoneally with a tumor inoculum of 10^6 ascites cells of P388 murine leukemia and treated with various doses of test compound. The compound was administered by intraperitoneal injection on a certain dosage schedule, i.e. test drug given once on day one, the day of tumor inoculation. Groups of four mice were used for each dosage amount. A group of ten saline-treated control mice was employed.
The test compound was dissolved in a mixture of water and ethanol. Death or survival of the treated and non-treated mice was recorded daily, and the median survival time (MST) in days was calculated for the test (T) and control (C) groups. […] Mice weighing 20 g each were employed and a loss in weight of up to about 2 grams was not considered excessive.

[2] = test system: E. coli A15119; test: Antimicrobial activity, serial two-fold agar dilution; assay type: cell-based; details: Escherichia coli, nutrient agar medium
Description: (§1) Antimicrobial activity of N-acetylesperamicin A1 was determined for a variety of bacteria by the serial two-fold agar dilution method. Nutrient agar medium was used.

[3] = test system: S. faecalis/ATCC 33186 A15708; test: as above; assay type: cell-based; details: Enterococcus faecalis, ATCC33186; nutrient agar medium
Description: as §1

[4] = test system: S. aureus A9537; test: as above; assay type: cell-based; details: Staphylococcus aureus, nutrient agar medium
Description: as §1

[5] = test system: S. faecalis/ATCC 29218 A25707; test: as above; assay type: cell-based; details: Enterococcus faecalis, ATCC29218; nutrient agar medium
Description: as §1

[6] = test system: K. pneumoniae A20468; test: as above; assay type: cell-based; details: Klebsiella pneumoniae, nutrient agar medium
Description: as §1

[7] = test system: P. vulgaris A21559; test: as above; assay type: cell-based; details: Proteus vulgaris, nutrient agar medium
Description: as §1

[8] = test system: S. aureus/ATCC 29213 A24407; test: as above; assay type: cell-based; details: Staphylococcus aureus, ATCC29213; nutrient agar medium
Description: as §1

[9] = test system: P. aeruginosa/ATCC 27853 A21508; test: as above; assay type: cell-based; details: Pseudomonas aeruginosa, ATCC27853; nutrient agar medium
Description: as §1

[10] = test system: B. subtilis/ATCC 6633 A9506-A; test: as above; assay type: cell-based; details: Bacillus subtilis, ATCC6633; nutrient agar medium
Description: as §1

[11] = test system: S. faecalis A20688; test: as above; assay type: cell-based; details: Enterococcus faecalis, nutrient agar medium
Description: as §1

[12] = test system: K. pneumoniae A9664; test: as above; assay type: cell-based; details: Klebsiella pneumoniae, nutrient agar medium
Description: as §1

[13] = test system: P. aeruginosa/ATCC 23389 A20235; test: as above; assay type: cell-based; details: Pseudomonas aeruginosa, ATCC23389; nutrient agar medium
Description: as §1

[14] = test system: E. coli/NCCLS strain A20697; test: as above; assay type: cell-based; details: Escherichia coli; nutrient agar medium
Description: as §1

[15] = test system: S. aureus/NCCLS strain A20698; test: as above; assay type: cell-based; details: Staphylococcus aureus; nutrient agar medium
Description: as §1

[16] = test system: P. aeruginosa A9843; test: as above; assay type: cell-based; details: Pseudomonas aeruginosa, nutrient agar medium
Description: as §1

[17] = test system: pathogenic bacteria; test: Antimicrobial activity (overall); assay type: cell-based
Description: as §1

[18] = test system: HCT/VP35; test: In vitro cytotoxicity assay; assay type: cell-based; details: Homo sapiens; HCT/VP35, etoposide-resistant; cell growth inhibition; values <500 mcg/ml positive indicator of activity
Description: (§2) N-Acetylesperamicin A1 was also tested in the in vitro cytotoxicity assay. This assay involves growing various mammalian tumor cells, including human tumor cells, on microtiter plates employing established tissue culture methods. The concentration of compound required to inhibit cell growth by 50% (IC50) was then determined by a four-fold serial dilution technique. The validity of the method has been supported by a report published in the "Proceedings of the American Association for Cancer Research", Vol. 25, 328, p. 1891 (1984). Tumor cells of the following types were employed: B16-F10 murine melanoma, Moser human colon, and three human colon tumor cell lines, namely HCT-116, HCT-VM34 and HCT/VP35, the latter two being resistant to teniposide (VM) and etoposide (VP).

[19] = test system: Moser human colon; test: In vitro cytotoxicity assay; assay type: cell-based; details: cell growth inhibition, four-fold serial dilution, values <500 mcg/ml positive indicator of activity
Description: as §2

[20] = test system: B16-F10 murine melanoma; test: In vitro cytotoxicity assay; assay type: cell-based; details: Mus musculus, cell growth inhibition, four-fold serial dilution, values <500 mcg/ml positive indicator of activity
Description: as §2

[21] = test system: HCT-116; test: In vitro cytotoxicity assay; assay type: cell-based; details: Homo sapiens, cell growth inhibition, four-fold serial dilution, values <500 mcg/ml positive indicator of activity
Description: as §2

[22] = test system: HCT/VM34; test: In vitro cytotoxicity assay; assay type: cell-based; details: Homo sapiens; HCT/VM34, teniposide-resistant; cell growth inhibition; values <500 mcg/ml positive indicator of activity
Description: as §2

C=C(OC)C(=O)Nc1cc(OC)c(OC)cc1C(=O)OC1CC(OC2C(=O)C(NC(=O)OC)=C3C(=CCSSSC)C2(O)C#CC=CC#CC3OC2OC(C)C(NOC3CC(O)C(SC)C(C)O3)C(O)C2OC2CC(OC)C(N(C(C)=O)C(C)C)CO2)OC(C)C1O (stereo not shown) [N-Acetylesperamicin A1]
% T/C (median survival time) ([1]; 0.0016 mg/kg): 147% | MST ([1]; 0.0016 mg/kg): 14.0 days | Average Wgt. change in g (day 4) ([1]; 0.0016 mg/kg): -0.5 g | No. Mice alive on day 5/total ([1]; 0.0016 mg/kg): 6/6 | % T/C (median survival time) ([1]; 0.0032 mg/kg): 153% | MST ([1]; 0.0032 mg/kg): 14.5 days | Average Wgt. change in g (day 4) ([1]; 0.0032 mg/kg): -0.2 g | No. Mice alive on day 5/total ([1]; 0.0032 mg/kg): 6/6 | % T/C (median survival time) ([1]; 0.0064 mg/kg): 147% | MST ([1]; 0.0064 mg/kg): 14.0 days | Average Wgt. change in g (day 4) ([1]; 0.0064 mg/kg): -1.7 g | No. Mice alive on day 5/total ([1]; 0.0064 mg/kg): 6/6 | % T/C (median survival time) ([1]; 0.0128 mg/kg): 179% | MST ([1]; 0.0128 mg/kg): 17.0 days | Average Wgt. change in g (day 4) ([1]; 0.0128 mg/kg): -2.2 g | No. Mice alive on day 5/total ([1]; 0.0128 mg/kg): 6/6 | % T/C (median survival time) ([1]; 0.0256 mg/kg): 63% | MST ([1]; 0.0256 mg/kg): 6.0 days | Average Wgt. change in g (day 4) ([1]; 0.0256 mg/kg): -3.1 g | No. Mice alive on day 5/total ([1]; 0.0256 mg/kg): 4/6 | % T/C (median survival time) ([1]; 0.0512 mg/kg): 63% | MST ([1]; 0.0512 mg/kg): 6.0 days | Average Wgt. change in g (day 4) ([1]; 0.0512 mg/kg): -2.9 g | No. Mice alive on day 5/total ([1]; 0.0512 mg/kg): 4/6 | % T/C (median survival time) ([1]; 0.0896 mg/kg): TOX | MST ([1]; 0.0896 mg/kg): TOX | Average Wgt. change in g (day 4) ([1]; 0.0896 mg/kg): -3.4 g | No. Mice alive on day 5/total ([1]; 0.0896 mg/kg): 0/6 | MIC [2]: 32 µg/mL (≈ 23.4 µM) | MIC [3]: 0.016 µg/mL (≈ 0.0117 µM) | MIC [4]: 0.008 µg/mL (≈ 0.00585 µM) | MIC [5]: 0.016 µg/mL (≈ 0.0117 µM) | MIC [6]: > 125 µg/mL | MIC [7]: 125 µg/mL (≈ 91.4 µM) | MIC [8]: 0.03 µg/mL (≈ 0.0219 µM) | MIC [9]: > 125 µg/mL | MIC [10]: 0.03 µg/mL (≈ 0.0219 µM) | MIC [11]: 0.03 µg/mL (≈ 0.0219 µM) | MIC [12]: 32 µg/mL (≈ 23.4 µM) | MIC [13]: 125 µg/mL (≈ 91.4 µM) | MIC [14]: 8 µg/mL (≈ 5.85 µM) | MIC [15]: 0.016 µg/mL (≈ 0.0117 µM) | MIC [16]: > 125 µg/mL | Antibacterial activity (in words) [17]: showed activity against a variety of pathogenic bacteria | IC50 [18]: 0.0271 µg/mL (≈ 0.0198 µM) | IC50 [19]: 1 µg/mL (≈ 0.731 µM) | IC50 [20]: 0.0522 µg/mL (≈ 0.0382 µM) | IC50 [21]: 0.0135 µg/mL (≈ 0.00987 µM) | IC50 [22]: 0.3 µg/mL (≈ 0.219 µM)

Source: patent US4837206A, “Esperamicin derivatives” (Bristol-Myers Company, priority 1987, dated 1989)
